From article PMC7915765, “Biochemical Characterization, Specificity and Inhibition Studies of HTLV-1, HTLV-2, and HTLV-3 Proteases” (Life, 2021)
Residue numbers refer to the chain shown, from its start. Entries after “also recorded” stand apart in the source; their conditions may differ. Like-named read-outs stand apart in the source and are kept apart here.

Legend:
HTLV-2 PR [1] = biological target: T1, HTLV-2 PR (Human T-cell leukemia virus 2, UniProt P03363); experiment: Protease activity assay with oligopeptide substrates (RP-HPLC), HTLV-2 PR; assay type: biochemical, human T-cell leukemia virus type 2; parameters: made in house; host or cells: E. coli BL21(DE3); details: pH 5.6, 37 °C
T1 sequence (P03363 447-571): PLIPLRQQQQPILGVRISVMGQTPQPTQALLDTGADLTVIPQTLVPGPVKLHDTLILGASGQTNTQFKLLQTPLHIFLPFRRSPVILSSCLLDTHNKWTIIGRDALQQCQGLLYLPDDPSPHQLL
Source text: (§1) The oligopeptides representing the naturally occurring matrix/capsid (MA/CA), capsid/nucleocapsid (CA/NC), trans-frame protein/protease (TF1/PR), and PR/p1 cleavage sites of HTLV-1, -2, and -3 PRs were used as substrates. The oligopeptide substrates representing the natural sequences of HTLV PRs were ordered from BioBasic, while the oligopeptide substrates representing naturally occurring cleavage sites of various viruses, or the wild-type, the shortened, and the P4, P3, P2, P1, or P1′ variants of HTLV-1 MA/CA cleavage site (KTKVL*VVQPK) were in-house stocks. All peptides were dissolved in distilled water.
(§2) For kinetic measurements, we applied 10 µL 2× incubation buffer (0.5 M K3PO4, 4 M NaCl, 10 v/v% glycerol, 10 mM DTT, pH 5.6), 5 µL of HTLV-1, HTLV-2, or HTLV-3 PR (final concentration of the active enzyme was in 0.1–34.4 nM), and 0.5–5 µL oligopeptide substrate representing HTLV PR natural cleavage sites (0.05–1.10 mM final concentration). The final volume of the reaction mixture was set to 20 µL with distilled water if it was necessary. The reactions were initiated by the addition of the enzyme, were incubated at 37 °C for 0.5–4 h, and stopped by the addition of 180 µL 1 v/v% TFA. For substrates representing natural cleavage sites of retroviruses other than HTLV-1, -2, and -3 PRs (HIV-1, equine infectious anemia virus (EIAV), Rous sarcoma virus (RSV), mouse mammary tumor virus (MMTV), Mason-Pfizer monkey virus (MPMV), and murine leukemia virus (MuLV) and BLV) in a longer incubation time (24 h) was also applied. The cleavage products were separated by using a Nova-Pack C18 RP-HPLC column (3.9 mm × 150 mm, Waters Associates Inc, Milford, MA, USA) on HPLC (Merck-Hitachi LaChrom). Water-acetonitrile gradient (0–100%) was used for separation in the presence of 0.05% TFA at 2 mL/min flow rate. The kinetic parameters were determined by fitting the data—obtained at less than 20% substrate hydrolysis—to the Michaelis–Menten equation. The Gaussian equation was used to determine pH optimum and exponential growth equation for determination of optimal NaCl concentration, while linear regression was applied to plot the dependence of enzyme activity on temperature. Prism8 software (GraphPad Software Inc., San Diego, CA, USA) was used for evaluation. The kcat/KM catalytic constants were calculated based on the active enzyme concentration, which was determined by active site titration using the method described previously.

HTLV-3 PR [2] = biological target: T2, HTLV-3 PR (Human T-cell leukemia virus 3, UniProt Q4U0X6); experiment: Protease activity assay with oligopeptide substrates (RP-HPLC), HTLV-3 PR; assay type: biochemical, human T-cell leukemia virus type 3; parameters: made in house; host or cells: E. coli BL21(DE3), pET11a; details: pH 5.6, 37 °C
T2 sequence (Q4U0X6 431-553): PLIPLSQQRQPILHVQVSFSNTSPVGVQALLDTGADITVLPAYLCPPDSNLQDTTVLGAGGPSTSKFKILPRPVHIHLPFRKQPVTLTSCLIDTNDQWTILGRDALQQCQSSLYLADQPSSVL
Source text: as §1, §2

HTLV-1 PR [3] = experiment: Protease activity assay with oligopeptide substrates (RP-HPLC), HTLV-1 PR; assay type: biochemical, human T-cell leukemia virus type 1; details: substrate 0.05–1.10 mM, 2× buffer 0.5 M K3PO4, 4 M NaCl, 10 v/v% glycerol, 10 mM DTT, pH 5.6, 37 °C, 0.5–4 h
Source text: as §1, §2

HTLV-2 PR [4] = biological target: T1, HTLV-2 PR; experiment: Inhibition study with HIV-1 PIs, HTLV-2 PR; assay type: biochemical, human T-cell leukemia virus type 2; parameters: made in house; host or cells: E. coli BL21(DE3); details: inhibitor 1 µM final; for loss of activity: substrate HTLV-2 MA/CA 0.40–0.43 mM, DMSO control = 100%, n = 2
Description: The inhibitors were dissolved in DMSO.

HTLV-3 PR [5] = biological target: T2, HTLV-3 PR; experiment: Inhibition study with HIV-1 PIs, HTLV-3 PR; assay type: biochemical; parameters: made in house; host or cells: E. coli BL21(DE3), pET11a; details: inhibitor 1 µM final; for loss of activity: substrate HTLV-3 MA/CA 0.40–0.43 mM, DMSO control = 100%, n = 2
Description: (§3) The IB-268 (KTKVL-r-VVQPK) and IB-269 (APQVL-r-PVMHP) reduced peptide bond (-r-)-containing inhibitors, which were synthesized by Dr. Ivo Blaha (Ferring Leciva, Prague, Czech Republic).
(§4) The reaction mixtures were prepared to contain 4.8 µL of substrate (in 0.40–0.43 mM final concentration), 0.2 µL of inhibitor, 5 µL of the enzyme, and 10 µL of a 2× incubation buffer. The substrates representing HTLV-2 and HTLV-3 MA/CA cleavage sites were used for HTLV-2 and HTLV-3 PRs, respectively. In the case of HIV-1 PIs, we applied 100 µM inhibitor stocks, while 0.5–100 µM stocks of IB-268 and IB-269 were used for screening. The inhibitors were dissolved in DMSO. Therefore, 0.2 µL of DMSO was added to the control samples.

HTLV-1 PR [6] = experiment: Inhibition study with HIV-1 PIs, HTLV-1 PR; assay type: biochemical, human T-cell leukemia virus type 1; details: inhibitor 1 µM final
Description: as §3, §4

HIV-1 PR = details: cleavage sites of viruses other than HTLV, retrieved from the literature, ref [28]; cited from earlier work
Source text: (§5) Table 3 Catalytic efficiencies of HTLV PRs on different substrates representing natural cleavage site sequences of viruses other than HTLV. Cleavage sites are labelled by an asterisk within the sequences. Abbreviations: MA (matrix), CA (capsid), NC (nucleocapsid), TF (transframe), RT (reverse-transcriptase), and IN (integrase). | column: kcat/KM (mM^−1 s^−1) / HIV-1 PR ^1

HTLV-1 PR [7] = details: cleavage sites of viruses other than HTLV, retrieved from the literature, ref [28]; cited from earlier work
Source text: as §5, with “Table 2 Catalytic efficiencies of HTLV PRs on different substrates representing natural cleavage site sequences. Cleavage sites are labelled by asterisks within the sequences. Abbreviations: MA (matrix), CA (capsid), NC (nucleocapsid), and TF1 (trans-frame 1). | column: kcat/KM [mM^−1 s^−1] / HTLV-1 PR || Table” for “Table”, “column: Substrate;” for “column:”, “HTLV-1” for “HIV-1”

HTLV-1 PR [8] = details: ref [28], cited from earlier work; for activity of mutant (in words): HTLV-1 PR mutants, L57G with HTLV-1 CA/NC substrate (KTKVL*VVQPK); for self-processing: HTLV-1 PR, designed and characterized previously
Source text: Table 5 Effects of protease mutations on autoproteolytic activity of HTLV PRs. | column: Self-Processing || We prepared mutant HTLV-2 and HTLV-3 PRs, which contained mutations that were introduced previously to HTLV-1 PR to study its self-processing capability. The rationale behind the former mutation design was to prepare mutant HTLV-1 PRs that contain HIV-1-like residues in the flap region (57th and 59th) or at the active site (37th and 67th). The herein studied enzymes also contained the same mutations in the corresponding positions (Figure 10). All modified residue constitutes a part of substrate binding sites (Table 4).

[9] = natural HTLV cleavage sites, substrate 0.05–1.10 mM, 2× buffer 0.5 M K3PO4, 4 M NaCl, 10 v/v% glycerol, 10 mM DTT, 0.5–4 h
[10] = cleavage sites of viruses other than HTLV, longer incubation time (24 h) also applied

Molecule: PHQLL*PIATP [HTLV-2 PR/P1, oligopeptide substrate PHQLL*PIATP]
- kcat/KM (HTLV-2 PR [1]; [9]): 92200 ± 41400 M⁻¹ s⁻¹
- kcat/KM (HTLV-3 PR [2]; [9]): 7500 ± 2700 M⁻¹ s⁻¹
- kcat/KM (HTLV-1 PR [3]): 10700 ± 4800 M⁻¹ s⁻¹

Molecule: ASQCL*PILHP [HTLV-3 MA/CA, oligopeptide substrate ASQCL*PILHP]
- kcat/KM (HTLV-2 PR [1]; [9]): 2600 ± 400 M⁻¹ s⁻¹
- kcat/KM (HTLV-3 PR [2]; [9]): 19700 ± 4400 M⁻¹ s⁻¹
- kcat/KM (HTLV-1 PR [3]): 40900 ± 10400 M⁻¹ s⁻¹

Molecule: SPRTIL*PLIP [HTLV-2 TF1/PR, oligopeptide substrate SPRTIL*PLIP]
- kcat/KM (HTLV-2 PR [1]; [9]): 132500 ± 42500 M⁻¹ s⁻¹
- kcat/KM (HTLV-3 PR [2]; [9]): 5000 ± 1100 M⁻¹ s⁻¹
- kcat/KM (HTLV-1 PR [3]): 4900 ± 1100 M⁻¹ s⁻¹

Molecule: O=C1N(Cc2ccc(CO)cc2)[C@H](Cc2ccccc2)[C@H](O)[C@@H](O)[C@@H](Cc2ccccc2)N1Cc1ccc(CO)cc1 [DMP-323]
- loss of activity (HTLV-2 PR [4]): < 50%
- loss of activity (HTLV-3 PR [5]): < 50%

Molecule: TTQCF*PILHP [HTLV-2 MA/CA, oligopeptide substrate TTQCF*PILHP]
- kcat/KM (HTLV-2 PR [1]; [9]): 4300 ± 500 M⁻¹ s⁻¹
- kcat/KM (HTLV-3 PR [2]; [9]): 37800 ± 20200 M⁻¹ s⁻¹
- kcat/KM (HTLV-1 PR [3]): 14400 ± 4300 M⁻¹ s⁻¹

Molecule: COC(=O)N[C@H](C(=O)N[C@@H](Cc1ccccc1)[C@@H](O)CN(Cc1ccc(-c2ccccn2)cc1)NC(=O)[C@@H](NC(=O)OC)C(C)(C)C)C(C)(C)C [atazanavir]
- loss of activity (HTLV-2 PR [4]): < 50%
- loss of activity (HTLV-3 PR [5]): < 50%

Molecule: PSKVL*PVLAP [HTLV-3 PR/P1, oligopeptide substrate PSKVL*PVLAP]
- kcat/KM (HTLV-2 PR [1]; [9]): 2100 ± 300 M⁻¹ s⁻¹
- kcat/KM (HTLV-3 PR [2]; [9]): 22600 ± 5800 M⁻¹ s⁻¹
- kcat/KM (HTLV-1 PR [3]): 7000 ± 2600 M⁻¹ s⁻¹

Molecule: CC(C)CN(C[C@@H](O)[C@H](Cc1ccccc1)NC(=O)O[C@H]1CO[C@H]2OCC[C@H]21)S(=O)(=O)c1ccc(N)cc1 [darunavir]
- inhibitory effect (in words) (HTLV-2 PR [4]): highest inhibition
- loss of activity (HTLV-2 PR [4]): < 50%
- inhibitory effect (in words) (HTLV-1 PR [6]): highest inhibition
- inhibitory effect (in words) (HTLV-3 PR [5]): highest inhibition
- loss of activity (HTLV-3 PR [5]): < 50%

Molecule: KNKIL*MIQPK [HTLV-3 CA/NC, oligopeptide substrate KNKIL*MIQPK]
- kcat/KM (HTLV-1 PR [3]): not cleaved

Molecule: CC(C)(C)NC(=O)[C@@H]1C[C@@H]2CCCC[C@@H]2CN1C[C@@H](O)[C@H](Cc1ccccc1)NC(=O)[C@H](CC(N)=O)NC(=O)c1ccc2ccccc2n1 [saquinavir]
- loss of activity (HTLV-2 PR [4]): < 50%
- loss of activity (HTLV-3 PR [5]): < 50%

Molecule: PRTIL*PVIPL [HTLV-3 TF1/PR, oligopeptide substrate PRTIL*PVIPL]
- kcat/KM (HTLV-1 PR [3]): 109800 ± 29300 M⁻¹ s⁻¹

Molecule: KQPAIL*VHTPG [BLV CA/NC, oligopeptide substrate KQPAIL*VHTPG]
- kcat/KM (HTLV-2 PR [1]; [10]): not cleaved
- kcat/KM (HTLV-3 PR [2]; [10]): not cleaved
- kcat/KM (HIV-1 PR): not cleaved
- kcat/KM (HTLV-1 PR [7]): not cleaved

Molecule: IAAAM*SSAIQ [RSV CA/P3, oligopeptide substrate IAAAM*SSAIQ]
- kcat/KM (HTLV-2 PR [1]; [10]): not cleaved
- kcat/KM (HTLV-3 PR [2]; [10]): not cleaved
- kcat/KM (HIV-1 PR): not cleaved
- kcat/KM (HTLV-1 PR [7]): not cleaved

Molecule: PKDIF*PVTET [MPMV P12/CA, oligopeptide substrate PKDIF*PVTET]
- kcat/KM (HTLV-2 PR [1]; [10]): not cleaved
- kcat/KM (HTLV-3 PR [2]; [10]): not cleaved
- kcat/KM (HIV-1 PR): 200 M⁻¹ s⁻¹
- kcat/KM (HTLV-1 PR [7]): 200 M⁻¹ s⁻¹

B1: HTLV-1 L57G (protein, UniProt P10274 450-574, looked up, variant L57G)
Protease: PVIPLDPARRPVIKAQVDTQTSHPKTIEALLDTGADMTVLPIALFSSNTPLKNTSVGGAGGQTQDHFKLTSLPVLIRLPFRTTPIVLTSCLVDTKNNWAIIGRDALQQCQGVLYLPEAKRPPVIL
modifications: Protease
- activity of mutant (in words) (HTLV-1 PR [8]): inefficient enzyme; also recorded: did not hydrolyze the CA/NC cleavage site peptide

B2: HTLV-1 M37D (protein, UniProt P10274 450-574, looked up, variant M37D)
Protease: B1 Protease with M37D, G57L
modifications: Protease
- self-processing (HTLV-1 PR [8]): no

B3: HTLV-1 A59I (protein, UniProt P10274 450-574, looked up, variant A59I)
Protease: B1 Protease with G57L, A59I
modifications: Protease
- activity of mutant (in words) (HTLV-1 PR [8]): undetectable activity

B4: HTLV-1 F67Q (protein, UniProt P10274 450-574, looked up, variant F67Q)
Protease: B1 Protease with G57L, F67Q
modifications: Protease
- activity of mutant (in words) (HTLV-1 PR [8]): not tolerated
- self-processing (HTLV-1 PR [8]): no

B5: HTLV-1 wild-type: wild-type HTLV-1 PR, self-processing studied previously (protein, UniProt P10274 450-574, looked up)
Protease: B1 Protease with G57L
modifications: Protease
notes: wild-type HTLV-1 PR, self-processing studied previously
- self-processing (HTLV-1 PR [8]): yes
